Earlier results on 2 compounds are cited in US9167842B2, “Functional food preparation and use thereof” (priority 2010, dated 2015).

The conditions of data set [1]: daily folic acid supplement.
For data set [2] the following is noted: oral, 32 hypercholesterolemic patients, three months.

Where two headings read alike, the source gives them in different places.

Consider `Nc1nc2ncc(CNc3ccc(C(=O)N[C@@H](CCC(=O)O)C(=O)O)cc3)nc2c(=O)[nH]1` [folic acid], for which the reduction of homocysteine result in data set [1] is “about 60%”; in data set [1] (dose doubled), “about 90%”.

For the compound `COc1ccc2cc3[n+](cc2c1OC)CCc1cc2c(cc1-3)OCO2` [berberine], in data set [2], the “reduction of LDL cholesterol” value was 25%, the “reduction of plasma cholesterol” value is listed as 29% and the reduction of triglycerides was 35%.
